ChEMBL document CHEMBL1201862, “PubChem BioAssay data set” (2004)
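In this assay, cells in 96-well plates receive the compound at five concentrations for 48 hours. Endpoints are linearly interpolated between the surrounding concentrations. GI50 = concentration required for 50% inhibition of growth.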 The source made the active and inactive calls. No stated cut-off is given here; in the data, active = GI50 up to about 1.1 µM and inactive = higher.

Tests used:
Assay in all cases: NCI tumour cell line growth inhibition, 48 h
[1] = test system: A549
[2] = test system: BT-549
[3] = test system: CAKI-1
[4] = test system: COLO 205
[5] = test system: DU-145
[6] = test system: HOP-62
[7] = test system: KM12
[8] = test system: LOX IMVI
[9] = test system: M14
[10] = test system: MDA-MB-231
[11] = test system: Malme-3M
[12] = test system: NCI-H460
[13] = test system: OVCAR-4
[14] = test system: SF-268
[15] = test system: SK-MEL-5
[16] = test system: SK-OV-3
[17] = test system: SN12C
[18] = test system: SR
[19] = test system: U-251
[20] = test system: UACC-62

| SMILES | GI50 [1] | GI50 [2] | GI50 [3] | GI50 [4] | GI50 [5] | GI50 [6] | GI50 [7] | GI50 [8] | GI50 [9] | GI50 [10] | GI50 [11] | GI50 [12] | GI50 [13] | GI50 [14] | GI50 [15] | GI50 [16] | GI50 [17] | GI50 [18] | GI50 [19] | GI50 [20] |
| --- | --- | --- | --- | --- | --- | --- | --- | --- | --- | --- | --- | --- | --- | --- | --- | --- | --- | --- | --- | --- |
| CC1(C)CCC(C)(C)c2cc(C(=O)Nc3ccc(C(=O)O)cc3)ccc21 | 20 µM (inactive) | 25.5 µM (inactive) | 18.4 µM (inactive) | 18 µM (inactive) | 28.4 µM (inactive) | 18.7 µM (inactive) | 26.5 µM (inactive) | 24.4 µM (inactive) | 19.6 µM (inactive) | 22.4 µM (inactive) | 18.7 µM (inactive) | 19.9 µM (inactive) | 20.9 µM (inactive) | 27.3 µM (inactive) | 23.6 µM (inactive) | 19.8 µM (inactive) | 31.8 µM (inactive) | 15 µM (inactive) | 27 µM (inactive) | 17.3 µM (inactive) |
| CC(C)/C(Cl)=N/OC(NC(=O)Nc1ccc(Cl)c(Cl)c1)(C(F)(F)F)C(F)(F)F | 23.2 µM (inactive) | 11.5 µM (inactive) | 2.16 µM (inactive) | 3.17 µM (inactive) | 16.7 µM (inactive) | 21.6 µM (inactive) | 18.2 µM (inactive) | 4.51 µM (inactive) | 5.65 µM (inactive) | 15.5 µM (inactive) | 2.37 µM (inactive) | 24.5 µM (inactive) | 13 µM (inactive) | 18.2 µM (inactive) | 15.8 µM (inactive) | 18.2 µM (inactive) | 11 µM (inactive) | 3.56 µM (inactive) | 17.3 µM (inactive) | 16 µM (inactive) |
| O=S(=O)(c1cccc(C(F)(F)F)c1)N1c2ccccc2-n2cccc2C1c1cccnc1 (stereo not given) | 17.3 µM (inactive) | 9.29 µM (inactive) | > 100 µM (inactive) | 16.5 µM (inactive) | > 39.7 µM (inactive) | > 43.6 µM (inactive) | 19.2 µM (inactive) | 35.5 µM (inactive) | 16.2 µM (inactive) | > 36.8 µM (inactive) | 21.4 µM (inactive) | 22.9 µM (inactive) | 24.8 µM (inactive) | > 43.2 µM (inactive) | 8.09 µM (inactive) | > 46.9 µM (inactive) | > 42.4 µM (inactive) | 6.71 µM (inactive) | 23.9 µM (inactive) | 13.9 µM (inactive) |
| COc1cc2c(cc1OCCCN1CCN(C)CC1)N=C[C@@H]1CCCN1C2=O | 2.37 µM (inactive) | 1.77 µM (inactive) | 1.25 µM (inactive) | 1.02 µM (active) | 2.25 µM (inactive) | 3.44 µM (inactive) | 1.57 µM (inactive) | 1.49 µM (inactive) | 1.86 µM (inactive) | 2.18 µM (inactive) | 2.21 µM (inactive) | 2.82 µM (inactive) | 2.15 µM (inactive) | 3.03 µM (inactive) | 2.04 µM (inactive) | 2.84 µM (inactive) | 3.57 µM (inactive) | 0.0887 µM (active) | 0.935 µM (active) | 1.78 µM (inactive) |
| CN(C)c1nc(N)c(C#N)c(C#N)c1C#N | > 10 µM (inactive) | > 10 µM (inactive) | > 10 µM (inactive) | > 8.81 µM (inactive) | > 10 µM (inactive) | > 10 µM (inactive) | > 10 µM (inactive) | > 10 µM (inactive) | > 10 µM (inactive) | > 10 µM (inactive) | > 10 µM (inactive) | > 10 µM (inactive) | > 10 µM (inactive) | > 10 µM (inactive) | > 10 µM (inactive) | > 10 µM (inactive) | > 10 µM (inactive) | 3.42 µM (inactive) | > 10 µM (inactive) | > 10 µM (inactive) |
| COc1ccc2c(c1)[C@@H](NC(C)=O)CCc1cc(OC)c(OC)c(OC)c1-2 | 0.0176 µM (active) | 1.85 µM (inactive) | 0.0206 µM (active) | 0.0135 µM (active) | 0.0185 µM (active) | 0.0216 µM (active) | 0.0131 µM (active) | 0.018 µM (active) | 0.0166 µM (active) | 0.0228 µM (active) | 0.0216 µM (active) | 0.0168 µM (active) | 9.84 µM (inactive) | 0.0154 µM (active) | 0.019 µM (active) | 0.129 µM (active) | 0.02 µM (active) | 0.0834 µM (active) | 0.0173 µM (active) | 0.0154 µM (active) |
| CC(C)(C)OC(=O)NC1CCCCC1NC(=O)C(=O)NC1CCCCC1NC(=O)OC(C)(C)C (stereo not given) | > 100 µM (inactive) | 53.5 µM (inactive) | 43 µM (inactive) | > 100 µM (inactive) | > 100 µM (inactive) | 19.3 µM (inactive) | > 100 µM (inactive) | > 100 µM (inactive) | > 100 µM (inactive) | 27.2 µM (inactive) | > 100 µM (inactive) | > 100 µM (inactive) | > 100 µM (inactive) | 37.2 µM (inactive) | > 100 µM (inactive) | 44.2 µM (inactive) | > 100 µM (inactive) | > 100 µM (inactive) | 25.9 µM (inactive) | 24 µM (inactive) |
